Assay results from PubChem BioAssay AID248 (DTP/NCI, 2004).
Several values for one entry are separate records, joined by “and”; a condition that tells them apart may be missing. Equal values may be shown once. Inconclusive results and toxic doses are left out. Rule as the data show it: active = T/C of 150% or more; inactive = T/C below 125%.

Test system: L1210 leukemia ip in BDF1 mice, survival T/C
Assay: NCI In Vivo Anticancer Drug Screen. Data for tumor model L1210 Leukemia (intraperitoneal) in B6D2F1 (BDF1) mice
Conditions: endpoint: mean survival time, higher = longer survival
Method in brief: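 In this screen, tumor-bearing mice given compound are compared to those given vehicle, and their survival values are reported as a treated-to-control quotient.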

[1] = dose: 100.0 mg/kg/injection, schedule: Q01DX009 (ip), vehicle: saline with Tween-80
[2] = dose: 100.0 mg/kg/injection, schedule: Q04DX003 (ip), vehicle: acetone
[3] = dose: 200.0 mg/kg/injection, schedule: Q01DX009 (ip), vehicle: saline with Tween-80
[4] = dose: 400.0 mg/kg/injection, schedule: Q01DX009 (ip), vehicle: saline with Tween-80
[5] = dose: 400.0 mg/kg/injection, schedule: Q04DX003 (ip), vehicle: acetone
[6] = dose: 100.0 mg/kg/injection, schedule: Q04DX003 (ip), vehicle: saline with Tween-80
[7] = dose: 200.0 mg/kg/injection, schedule: Q04DX003 (ip), vehicle: saline with Tween-80
[8] = dose: 100.0 mg/kg/injection, schedule: Q01DX001 (ip), vehicle: carboxymethylcellulose (CMC)
[9] = dose: 200.0 mg/kg/injection, schedule: Q01DX001 (ip), vehicle: carboxymethylcellulose (CMC)
[10] = dose: 400.0 mg/kg/injection, schedule: Q01DX001 (ip), vehicle: carboxymethylcellulose (CMC)

Measured: T/C

CCC[N+](C)(C)CC
inactive: dose: 37.5 mg/kg/injection, schedule: Q01DX001 (ip), vehicle: saline 104 % of control | dose: 75.0 mg/kg/injection, schedule: Q01DX001 (ip), vehicle: saline 95 % of control

CC12C=CC(CC1)C2OC(=O)c1ccccc1C(=O)O (stereo not drawn)
inactive: dose: 100.0 mg/kg/injection, schedule: Q01DX009 (ip), vehicle: Klucel (hydroxypropylcellulose) (HPC) 95 % of control | dose: 100.0 mg/kg/injection, schedule: Q04DX003 (ip), vehicle: Klucel (hydroxypropylcellulose) (HPC) 94 % of control | dose: 200.0 mg/kg/injection, schedule: Q01DX009 (ip), vehicle: Klucel (hydroxypropylcellulose) (HPC) 97 % of control | dose: 200.0 mg/kg/injection, schedule: Q04DX003 (ip), vehicle: Klucel (hydroxypropylcellulose) (HPC) 108 % of control | dose: 400.0 mg/kg/injection, schedule: Q01DX009 (ip), vehicle: Klucel (hydroxypropylcellulose) (HPC) 92 % of control | dose: 400.0 mg/kg/injection, schedule: Q04DX003 (ip), vehicle: Klucel (hydroxypropylcellulose) (HPC) 92 % of control

Cc1cc(O)ccc1C#N
inactive: dose: 100.0 mg/kg/injection, schedule: Q04DX002 (ip), vehicle: saline 102 % of control | dose: 200.0 mg/kg/injection, schedule: Q04DX002 (ip), vehicle: saline 102 % of control | dose: 400.0 mg/kg/injection, schedule: Q04DX002 (ip), vehicle: saline 104 % of control

O=C(O)CO/N=C/c1ccccc1Cl
inactive: dose: 200.0 mg/kg/injection, schedule: Q04DX002 (ip), vehicle: Klucel (hydroxypropylcellulose) (HPC) 98 % of control | dose: 400.0 mg/kg/injection, schedule: Q04DX002 (ip), vehicle: Klucel (hydroxypropylcellulose) (HPC) 95 % of control

COc1ccc(CN2CCCN(Cc3ccc(OC)cc3)C2c2ccc(OC)cc2)cc1
inactive: [1] 92 % of control | [2] 94 % of control | [3] 98 % of control and 87 % of control | dose: 200.0 mg/kg/injection, schedule: Q04DX003 (ip), vehicle: acetone 97 % of control | [4] 96 % of control | [5] 95 % of control

C#CCOCCBr
inactive: [6] 97 % of control | [7] 95 % of control

CSc1nnnn1-c1ccccc1
inactive: [2] 100 % of control | [6] 102 % of control | [7] 100 % of control | [5] 100 % of control

Cc1ccc(C)c(NC(=O)NCCN(C)c2ccccc2)c1
inactive: dose: 100.0 mg/kg/injection, schedule: Q01DX001 (ip), vehicle: saline with Tween-80 96 % of control | [1] 87 % of control | dose: 100.0 mg/kg/injection, schedule: Q04DX002 (ip), vehicle: saline with Tween-80 89 % of control and 91 % of control | dose: 200.0 mg/kg/injection, schedule: Q01DX001 (ip), vehicle: saline with Tween-80 93 % of control | [3] 89 % of control | dose: 200.0 mg/kg/injection, schedule: Q04DX002 (ip), vehicle: saline with Tween-80 89 % of control and 91 % of control | dose: 400.0 mg/kg/injection, schedule: Q01DX001 (ip), vehicle: saline with Tween-80 92 % of control | [4] 101 % of control | dose: 400.0 mg/kg/injection, schedule: Q04DX002 (ip), vehicle: saline with Tween-80 89 % of control and 91 % of control

Cc1nc(NNCc2ccccc2)n[nH]1
inactive: dose: 37.5 mg/kg/injection, schedule: Q01DX001 (ip), vehicle: Klucel (hydroxypropylcellulose) (HPC) 106 % of control | dose: 75.0 mg/kg/injection, schedule: Q01DX001 (ip), vehicle: Klucel (hydroxypropylcellulose) (HPC) 101 % of control | dose: 150.0 mg/kg/injection, schedule: Q01DX001 (ip), vehicle: Klucel (hydroxypropylcellulose) (HPC) 110 % of control

Cc1cc(N(CCCl)CCCl)ccc1C=Nc1cc(Cl)c(O)c(Cl)c1
inactive: [8] 96 % of control | [9] 96 % of control | [10] 105 % of control

CS(=O)(=O)Oc1c(Cl)cc(Cl)c2cccnc12
inactive: [8] 102 % of control | [9] 102 % of control | [10] 111 % of control

O=C(O)/C=C/Sc1ccccc1
inactive: dose: 25.0 mg/kg/injection, schedule: Q04DX003 (ip), vehicle: Klucel (hydroxypropylcellulose) (HPC) 104 % of control | dose: 50.0 mg/kg/injection, schedule: Q04DX003 (ip), vehicle: Klucel (hydroxypropylcellulose) (HPC) 102 % of control

CC1C=CC(C(=O)Nc2ccc(Cl)c(Cl)c2)N1C (stereo not drawn)
inactive: dose: 50.0 mg/kg/injection, schedule: Q01DX009 (ip), vehicle: saline with Tween-80 94 % of control | [1] 91 % of control | [3] 93 % of control

C=C1C(=O)OC2CC(C)C3CC(OCCCl)OC(OCCCl)C3(C)CC12 (stereo not drawn)
inactive: dose: 1.25 mg/kg/injection, schedule: Q01DX005 (ip), vehicle: other 104 % of control | dose: 2.5 mg/kg/injection, schedule: Q01DX005 (ip), vehicle: other 106 % of control | dose: 5.0 mg/kg/injection, schedule: Q01DX005 (ip), vehicle: other 101 % of control | dose: 10.0 mg/kg/injection, schedule: Q01DX005 (ip), vehicle: other 101 % of control | dose: 20.0 mg/kg/injection, schedule: Q01DX005 (ip), vehicle: other 113 % of control
